Source: patent US20250205259A1, “CLASS OF 7-((FIVE-MEMBERED HETEROCYCLIC)METHYL)-8-CARBOXYLIC ACID-BENZO CYCLIC BORATE DERIVATIVES AND USES THEREOF” (priority 2022, published 2025)
Where two headings read alike, the source gives them in different places.

Tests used:
Format in all cases: biochemical
VIM-2 = VIM-2 (Escherichia coli, UniProt Q5U7L7); assay: Inhibitory activity on MBL, fluorescent substrate FC-5; settings: read-out: Inhibitory activity on MBL VIM-2 (IC50 class)
SHV-12 = target: T1, SHV-12 (UniProt P0AD64, L31Q/G234S/E235K, species not given); assay: Inhibitory activity on SBL, fluorescent substrate FC-5; settings: for IC50: read-out: Inhibitory activity on SBL SHV-12 (IC50 class)
T1 sequence (P0AD64 1-286 L31Q/G234S/E235K): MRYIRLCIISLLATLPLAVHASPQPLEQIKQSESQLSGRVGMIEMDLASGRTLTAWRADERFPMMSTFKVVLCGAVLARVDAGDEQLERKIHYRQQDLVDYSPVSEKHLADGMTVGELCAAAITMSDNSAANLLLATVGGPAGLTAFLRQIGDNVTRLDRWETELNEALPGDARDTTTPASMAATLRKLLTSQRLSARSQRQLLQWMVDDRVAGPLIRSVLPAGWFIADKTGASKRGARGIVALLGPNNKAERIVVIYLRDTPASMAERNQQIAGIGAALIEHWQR

NDM-1 = NDM-1 (Klebsiella pneumoniae, UniProt C7C422); assay: Inhibitory activity on MBL, fluorescent substrate FC-5
Chain of NDM-1 (C7C422 29-270 limits assumed): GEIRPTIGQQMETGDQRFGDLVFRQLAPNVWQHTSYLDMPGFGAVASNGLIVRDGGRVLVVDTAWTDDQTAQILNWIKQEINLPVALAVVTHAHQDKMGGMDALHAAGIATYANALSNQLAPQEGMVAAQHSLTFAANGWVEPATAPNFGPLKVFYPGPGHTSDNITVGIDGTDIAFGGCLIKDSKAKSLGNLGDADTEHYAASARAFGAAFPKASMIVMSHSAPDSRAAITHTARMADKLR

CTX-M-14 = CTX-M-14 (Escherichia coli, UniProt Q9L5C7); assay: Inhibitory activity on SBL, fluorescent substrate FC-5; settings: for IC50: read-out: Inhibitory activity on SBL CTX-M-14 (IC50 class)
Chain of CTX-M-14 (Q9L5C7 entry or part of it): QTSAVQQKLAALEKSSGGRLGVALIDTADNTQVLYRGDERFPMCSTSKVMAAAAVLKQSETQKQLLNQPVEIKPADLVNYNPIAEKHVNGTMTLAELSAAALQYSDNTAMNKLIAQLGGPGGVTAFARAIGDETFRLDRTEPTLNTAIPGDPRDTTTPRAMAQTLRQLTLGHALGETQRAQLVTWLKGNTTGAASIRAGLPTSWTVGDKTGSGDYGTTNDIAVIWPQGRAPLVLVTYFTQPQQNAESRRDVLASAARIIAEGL

KPC-2 = KPC-2 (Klebsiella pneumoniae, UniProt Q9F663); assay: as above; settings: for IC50: read-out: Inhibitory activity on SBL KPC-2 (IC50 class)
Chain of KPC-2 (Q9F663 25-293 limits assumed): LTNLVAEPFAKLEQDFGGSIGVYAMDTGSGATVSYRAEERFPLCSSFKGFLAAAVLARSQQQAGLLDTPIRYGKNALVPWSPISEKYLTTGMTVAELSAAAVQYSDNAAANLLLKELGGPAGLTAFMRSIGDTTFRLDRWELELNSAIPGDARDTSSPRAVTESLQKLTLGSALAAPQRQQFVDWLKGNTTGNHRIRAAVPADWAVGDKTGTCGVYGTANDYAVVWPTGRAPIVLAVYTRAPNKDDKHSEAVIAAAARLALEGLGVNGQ

VIM-1 = VIM-1 (Pseudomonas aeruginosa, UniProt A0A0F7KYQ8); assay: Inhibitory activity on MBL, fluorescent substrate FC-5
TEM-1 = TEM-1 (Escherichia coli, UniProt P62593); assay: Inhibitory activity on SBL, fluorescent substrate FC-5; settings: for IC50: read-out: Inhibitory activity on SBL TEM-1 (IC50 class)
Chain of TEM-1 (P62593 24-286 limits assumed): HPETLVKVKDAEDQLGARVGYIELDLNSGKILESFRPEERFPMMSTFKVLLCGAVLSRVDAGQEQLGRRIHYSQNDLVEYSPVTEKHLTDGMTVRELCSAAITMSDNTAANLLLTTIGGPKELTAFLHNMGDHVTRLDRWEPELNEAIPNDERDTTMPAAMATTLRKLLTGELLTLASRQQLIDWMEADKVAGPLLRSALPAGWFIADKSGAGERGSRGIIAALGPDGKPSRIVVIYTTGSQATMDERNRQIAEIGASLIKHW

OXA-48 = OXA-48 (Klebsiella pneumoniae, UniProt Q6XEC0); assay: as above; settings: for IC50: read-out: Inhibitory activity on SBL OXA-48 (IC50 class)
Chain of OXA-48 (Q6XEC0 23-265 limits assumed): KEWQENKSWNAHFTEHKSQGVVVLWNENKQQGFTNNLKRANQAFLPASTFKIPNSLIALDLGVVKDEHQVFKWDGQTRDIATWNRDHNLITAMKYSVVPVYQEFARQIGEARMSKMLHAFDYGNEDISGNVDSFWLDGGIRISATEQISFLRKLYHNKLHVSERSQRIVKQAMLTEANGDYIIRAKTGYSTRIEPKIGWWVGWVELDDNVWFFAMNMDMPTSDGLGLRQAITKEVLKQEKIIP

NDM-5 = NDM-5 (Klebsiella pneumoniae, UniProt C7C422, M154L/V88L); assay: Inhibitory activity on MBL, fluorescent substrate FC-5
Chain of NDM-5 (C7C422 29-270 V88L/M154L): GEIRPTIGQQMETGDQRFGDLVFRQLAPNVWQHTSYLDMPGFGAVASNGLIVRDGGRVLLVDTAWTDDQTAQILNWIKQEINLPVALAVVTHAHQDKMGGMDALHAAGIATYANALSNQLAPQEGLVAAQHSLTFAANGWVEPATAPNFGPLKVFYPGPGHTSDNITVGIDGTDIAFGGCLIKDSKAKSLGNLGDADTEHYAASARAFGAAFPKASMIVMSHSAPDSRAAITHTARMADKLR

IMP-1 = IMP-1 (Serratia marcescens, UniProt P52699); assay: as above; settings: read-out: Inhibitory activity on MBL IMP-1 (IC50 class)
Chain of IMP-1 (P52699 19-246 limits assumed): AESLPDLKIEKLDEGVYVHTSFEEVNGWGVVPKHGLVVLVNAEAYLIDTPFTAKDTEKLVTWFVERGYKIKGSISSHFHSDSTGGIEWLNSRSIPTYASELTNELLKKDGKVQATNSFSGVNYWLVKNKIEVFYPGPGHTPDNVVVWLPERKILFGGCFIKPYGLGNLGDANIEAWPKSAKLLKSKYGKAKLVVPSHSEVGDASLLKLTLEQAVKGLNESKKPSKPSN

[1] = read-out: Inhibitory activity on MBL NDM-1 (IC50 class)
[2] = read-out: inhibitory activity at a nanomolar-level on NDM-1
[3] = VIM-1 and/or VIM-2, read-out: inhibitory activity at a nanomolar-level on VIM-1 and/or VIM-2
[4] = read-out: Inhibitory activity on MBL VIM-1 (IC50 class)
[5] = read-out: Inhibitory activity on MBL NDM-5 (IC50 class)
[6] = read-out: inhibitory activity at a nanomolar-level on NDM-5

| Structure (SMILES) | IC50 (VIM-2) [nM] | IC50 (SHV-12) [nM] | IC50 (NDM-1; [1]) [nM] | IC50 (NDM-1; [2]) [nM] | IC50 (CTX-M-14) [nM] | IC50 (KPC-2) [nM] | IC50 (VIM-1; [3]) [nM] | IC50 (VIM-1; [4]) [nM] | IC50 (TEM-1) [nM] | IC50 (OXA-48) [nM] | IC50 (NDM-5; [5]) [nM] | IC50 (NDM-5; [6]) [nM] | IC50 (IMP-1) [nM] | inhibitory activity on CTX-M-14 compared to avibactam (CTX-M-14; comparison in words) | inhibitory activity on KPC-2 compared to avibactam (KPC-2; comparison in words) | inhibitory activity on TEM-1 compared to avibactam (TEM-1; comparison in words) | inhibitory activity on OXA-48 compared to avibactam (OXA-48; comparison in words) | inhibitory activity on SHV-12 compared to control drugs (SHV-12; comparison in words) |
| --- | --- | --- | --- | --- | --- | --- | --- | --- | --- | --- | --- | --- | --- | --- | --- | --- | --- | --- |
| O=C(O)c1c(Cn2cccn2)ccc2c1OB(O)CC2 [Compound 14] | 10 to 1000 | 10 to 1000 | 10 to 1000 | < 1000 | < 10 | < 10 | < 1000 | 1000 to 100000 | 10 to 1000 | < 10 | 10 to 1000 | < 1000 | 1000 to 100000 |  |  |  |  |  |
| NC(=O)c1cnn(Cc2ccc3c(c2C(=O)O)OB(O)CC3)c1 [Compound 19] | 10 to 1000 | 10 to 1000 | 10 to 1000 | < 1000 | 10 to 1000 | < 10 | < 1000 | 10 to 1000 | < 10 | < 10 | 10 to 1000 | < 1000 | 1000 to 100000 | better or comparable | better or comparable | better or comparable | better or comparable |  |
| NCc1ccn(Cc2ccc3c(c2C(=O)O)OB(O)CC3)n1 [Compound 42] | 10 to 1000 | 10 to 1000 | 10 to 1000 | < 1000 | 10 to 1000 | < 10 | < 1000 | 10 to 1000 | < 10 | 10 to 1000 | 10 to 1000 | < 1000 | 1000 to 100000 |  |  |  |  |  |
| O=C(O)c1c(CN2CC=CC2)ccc2c1OB(O)CC2 [Compound 26] | 1000 to 100000 | 10 to 1000 | 1000 to 100000 |  | 10 to 1000 | < 10 |  | 1000 to 100000 | 10 to 1000 | 10 to 1000 | 1000 to 100000 |  | 1000 to 100000 |  |  |  |  |  |
| NS(=O)(=O)NCCc1cn(Cc2ccc3c(c2C(=O)O)OB(O)CC3)nn1 [Compound 51] | 10 to 1000 | 10 to 1000 | 10 to 1000 | < 1000 | 10 to 1000 | < 10 |  | 1000 to 100000 | 10 to 1000 | < 10 | 10 to 1000 | < 1000 | 1000 to 100000 |  |  |  |  |  |
| NC1CN(C(=O)c2cnn(Cc3ccc4c(c3C(=O)O)OB(O)CC4)c2)C1 [Compound 72] | 10 to 1000 | < 10 | 10 to 1000 | < 1000 | 10 to 1000 | < 10 | < 1000 | 10 to 1000 | < 10 | 10 to 1000 | 10 to 1000 | < 1000 | 10 to 1000 |  |  |  |  | comparable to avibactam and tazobactam and superior to taniborbactam |
| NC(=O)c1ccn(Cc2ccc3c(c2C(=O)O)OB(O)CC3)n1 [Compound 20] | 10 to 1000 | 10 to 1000 | 10 to 1000 | < 1000 | 10 to 1000 | < 10 | < 1000 | 10 to 1000 | < 10 | < 10 | 10 to 1000 | < 1000 | 1000 to 100000 |  |  |  |  |  |
| Nc1cnn(Cc2ccc3c(c2C(=O)O)OB(O)CC3)c1 [Compound 32] | 10 to 1000 | 10 to 1000 | 10 to 1000 | < 1000 | < 10 | < 10 |  | 1000 to 100000 | 10 to 1000 | < 10 | 10 to 1000 | < 1000 | 1000 to 100000 |  |  |  |  |  |
| NS(=O)(=O)N1Cc2cn(Cc3ccc4c(c3C(=O)O)OB(O)CC4)nc2C1 [Compound 57] | 10 to 1000 | 10 to 1000 | 10 to 1000 | < 1000 | < 10 | < 10 | < 1000 | 10 to 1000 | < 10 | < 10 | 10 to 1000 | < 1000 | 1000 to 100000 |  |  |  |  |  |
| O=C(O)c1c(Cn2cc(F)cn2)ccc2c1OB(O)CC2 [Compound 15] | 10 to 1000 | 10 to 1000 | 10 to 1000 | < 1000 | 10 to 1000 | < 10 | < 1000 | 1000 to 100000 | 10 to 1000 | 10 to 1000 | 10 to 1000 | < 1000 | 1000 to 100000 |  |  |  |  |  |
| NCCNCc1cnn(Cc2ccc3c(c2C(=O)O)OB(O)CC3)c1 [Compound 35] | 10 to 1000 | 10 to 1000 | 1000 to 100000 |  | 10 to 1000 | 10 to 1000 |  | 1000 to 100000 | < 10 | < 10 | 10 to 1000 |  | 1000 to 100000 |  |  |  |  |  |
| Cc1nccn1Cc1ccc2c(c1C(=O)O)OB(O)CC2 [Compound 24] | 10 to 1000 | 10 to 1000 | 1000 to 100000 |  | 10 to 1000 | < 10 | < 1000 | 1000 to 100000 | 10 to 1000 | < 10 | 1000 to 100000 |  | 1000 to 100000 |  |  |  |  |  |
| N#CCCCc1cn(Cc2ccc3c(c2C(=O)O)OB(O)CC3)nn1 [Compound 6] | 10 to 1000 | 10 to 1000 | 1000 to 100000 |  | 10 to 1000 | < 10 | < 1000 | 1000 to 100000 | 10 to 1000 | 10 to 1000 | 10 to 1000 |  | 1000 to 100000 |  |  |  |  |  |
| O=C(O)c1c(Cn2cc3c(n2)CNC3)ccc2c1OB(O)[C@@H]1C[C@H]21 [Compound 53] | 10 to 1000 | 10 to 1000 | 10 to 1000 | < 1000 | 10 to 1000 | < 10 |  | 1000 to 100000 | 10 to 1000 | < 10 | 10 to 1000 | < 1000 | 1000 to 100000 |  |  |  |  |  |
| O=C(O)c1c(Cn2cc([N+](=O)[O-])cn2)ccc2c1OB(O)CC2 [Compound 31] | 10 to 1000 | 10 to 1000 | 10 to 1000 | < 1000 | 10 to 1000 | < 10 |  | 1000 to 100000 | 10 to 1000 | < 10 | 10 to 1000 | < 1000 | 1000 to 100000 |  |  |  |  |  |
| O=C(O)c1c(Cn2cncn2)ccc2c1OB(O)CC2 [Compound 13] | 10 to 1000 | 10 to 1000 | 10 to 1000 | < 1000 | < 10 | < 10 | < 1000 | 1000 to 100000 | 10 to 1000 | < 10 | 10 to 1000 | < 1000 | 1000 to 100000 |  |  |  |  |  |
| O=C(O)c1c(Cn2cc3c(n2)CNC3)ccc2c1OB(O)[C@H]1C[C@@H]21 [Compound 54] | 10 to 1000 | 10 to 1000 | 10 to 1000 | < 1000 | 10 to 1000 | 10 to 1000 |  | 1000 to 100000 | 1000 to 100000 | 10 to 1000 | 10 to 1000 | < 1000 | 1000 to 100000 |  |  |  |  |  |
| C[n+]1ccn(Cc2ccc3c(c2C(=O)O)OB(O)CC3)n1 [Compound 3] | 10 to 1000 | 10 to 1000 | 10 to 1000 | < 1000 | 10 to 1000 | < 10 | < 1000 | 1000 to 100000 | 10 to 1000 | 10 to 1000 | 10 to 1000 | < 1000 | 1000 to 100000 |  |  |  |  |  |
